According to patent US20230125212A1, “MEANS AND METHODS FOR ENHANCING CA[…]” (priority 2020, published 2023):

Tested on: pilocarpine-induced epilepsy
Assay: Rat model of pilocarpine-induced epilepsy, seizure scoring by Racine scale
Type: in vivo
Conditions: CBD 25 mg/kg IP; cumulative Racine score over 120 min after pilocarpine 350 mg/kg
Description: Objective: The aim of the current study is to assess the effect of a new CBD formulation as seizures protection in the rat model of pilocarpine-induced epilepsy.
Study variables and endpoints: The formulation is administered IP (Intraperitoneally). The animals are assessed for: • a. Mortality & morbidity—Twice daily • b. Body weight monitoring—During acclimation and before Test Item (TI) dosing (Day 1) • c. Clinical signs—Before TI dosing, continuous follow-up during the first two hours following Pilocarpine administration. Monitoring of number and duration of seizures during 120 minutes following pilocarpine administration (Seizures rating according to Racine scale). • d. Study termination—At the end of the seizures' observation (120 minutes after Pilocarpine administration) animals are sedated with Ketamine/Xylazine mixture and are subjected to pericardial perfusion with PBS and PFA 4%, brains will be removed and stored in PFA 4% until histopathological analysis
Administration of the Test Items Each Test Item and vehicle formulation are administered to tested animals, according to Table. […]
Seizure scoring: Following model induction by Pilocarpine injection, the animals are video recorded for 2 hours. The videos are analyzed and seizures rating are recorded according to the following Racine scale below. • a. […]

`C=C(C)[C@@H]1CCC(C)=C[C@H]1c1c(O)cc(CCCCC)cc1O` [CBD, Cannabidiol] was tested, and the “AV-Seizure Score” value was 29.2.
